In patent publication US20210100905A1, “APPLICATION OF COMPOUND OR TRADITIONAL CHINESE MEDICINE EXTRACT IN PREPARATION OF NUCLEIC ACID DELIVERY AGENT, AND RELATED PRODUCTS” (INSTITUTE OF BASIC MEDICAL SCIENCES CHINESE ACADEMY OF …, priority 2018, published 2021):

Experiments:
[1] = Luciferase reporter with 3′UTR of target gene after lipid-mediated small RNA delivery; assay type: cell-based; conditions: FIG. 13; mutated 3′UTR
[2] = system: Luciferase with the wild-type 3′UTR in the target gene; assay: as above; assay type: cell-based; conditions: FIG. 13; wild-type 3′UTR
[3] = system: MRC-5 cell (lung fibroblast); assay: In vitro delivery of lipid nucleic acid mixture, RT-qPCR of intracellular small RNA; assay type: cell-based; conditions: for delivery of double-stranded RNA into MRC-5 cells (real-time PCR) / delivery of HJT-sRNA-m7 single-stranded RNA into MRC-5 cells (real-time PCR): single lipid; for delivery of double-stranded RNA into MRC-5 cells (real-time PCR): boiling (heating) method, FIGS. 77, 91; for delivery of HJT-sRNA-m7 single-stranded RNA into MRC-5 cells (real-time PCR): boiling method, FIGS. 78, 92, 103
Procedure, shortened: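 A549 or MRC-5 cells seeded overnight, then given lipid–HJT-sRNA-m7 mixture (ether-evaporation or heated chloroform preparation) at 100 nM sRNA final for 12–24 h. After PBS washes, intracellular sRNA measured by stem-loop RT and SYBR Green qPCR; relative level by 2-ΔCt method with U6 reference.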

[4] = In vivo intragastric delivery of small RNA with lipid No. 41, samples after 6 hours; parameters: species or system mice; conditions: each small RNA 1 nmol/animal
Protocol: [Experimental method] 6-8 weeks old mice, 22-24 g, were raised in SPF room of the Animal Center of the Institute of Basic Medical Sciences of Chinese Academy of Medical Sciences. The mice were fasted for 12 hours before intragastric administration. The mice were randomly divided into 3 groups: (1) control group, 400 μl DEPC-treated water, intragastric administration; (2) free uptake group, small RNA (PGY-sRNA-26, PGY-sRNA-32 and PGY-sRNA-23), each small RNA 1 nmol/animal, dissolved in 400 μl DEPC-treated water, intragastric administration; (3) lipid No. 41 group: a mixture of small RNA (PGY-sRNA-26 and PGY-sRNA-32) and lipid No. 41 prepared by heating method was intragastrically administered, each small RNA 1 nmol/animal, lipid No. 41 10 μl/animal, dissolved in 400 μl DEPC-treated water. All tissue and organ samples were collected after 6 hours of intragastric administration. All small RNAs were single-stranded RNA modified by 3p- terminal 2-O-methylation.

SMILES	action on Luciferase with mutated 3′UTR [1]	relative expression level of Luciferase with wild-type 3′UTR [2]	delivery of double-stranded RNA into MRC-5 cells (real-time PCR) [3]	delivery of HJT-sRNA-m7 single-stranded RNA into MRC-5 cells (real-time PCR) [3]	also measured
CCCCC/C=C\C/C=C\CCCCCCCC(=O)O[C@H](COC(=O)CCCCCCCCCCCCCCC)COP(=O)([O-])OCC[N+](C)(C)C [No. 12, (2-{[(2R)-3-(hexadecanoyloxy)-2-[(9Z,12Z)-octadeca-9,12-dienoyloxy]propylphosphonato]oxy}ethyl) trimethylazanium]	did not act on the mutated 3′UTR of their target genes	reduced the relative expression level of the Luciferase with the wild-type 3′UTR in the target gene	–	–	–
CCCCCC/C=C\CCCCCCCC(=O)O[C@H](COC(=O)CCCCCCCCCCCCCCC)COP(=O)(O)OCCN [No. 38, (2-aminoethoxy) [(2R)-2-[(9Z)-hexadec-9-enoyloxy]-3-(hexadecanoyloxy)propoxy] phosphinic acid]	–	–	delivered double-stranded RNA into A549 and MRC-5 cells	the efficiency of delivery was much higher than that of RNAiMAX	amount of HJT-sRNA-m7 that entered the cells (RT-qPCR) ([3]; Example 2-1, FIG. 33, double-stranded, 100 nM, 24 hours, boiling 100° C. 30 min, No. 38 series): effectively delivered nucleic acids into MRC-5 cells, showing an effect close to the transfection reagent RNAiMAX; delivery effect relative to that of RNAiMAX (real-time PCR) ([3]; double-stranded RNA, heating method, FIG. 91): about twice
CCCCCCCCCCCCCCCCCCC[C@@H](O)[C@@H](N)CO [No. 41, Sphinganine (d22:0)]	–	–	delivered double-stranded RNA into MRC-5 cells	delivered HJT-sRNA-m7 single-stranded RNA into A549 and MRC-5 cells	entry of small RNA into the blood ([4]; FIG. 108, lipid 10 μl/animal): could promote the entry of small RNA into the blood, protecting it from degradation in the blood; entry of small RNA into the stomach cells ([4]; FIG. 109, lipid 10 μl/animal): could promote the entry of small RNA into the stomach cells, protecting it from degradation in the stomach; entry of small RNA into small intestinal cells ([4]; FIG. 110, lipid 10 μl/animal): could promote the entry of small RNA into small intestinal cells, protecting it from degradation in the small intestine; entry of small RNA into the liver ([4]; FIG. 111, lipid 10 μl/animal): could promote the entry of small RNA into the liver, protecting it from degradation in the liver; delivery effect relative to that of RNAiMAX (real-time PCR) ([3]; double-stranded HJT-sRNA-m7, reverse evaporation method, FIG. 77): significantly higher than that of RNAiMAX
CCCCC/C=C\C/C=C\CCCCCCCC(=O)O[C@H](COC(=O)CCCCCCCCCCCCCCCCC)COP(=O)([O-])OCC[N+](C)(C)C [No. 11, trimethyl(2-{[(2R)-2-[(9Z, 12Z)-octadeca-9,12-dienoyloxy]-3-(octadecanoyloxy)propyl-phosphonato]oxy}ethyl) azanium]	did not act on the mutated 3′UTR of their target genes	reduced the relative expression level of the Luciferase with the wild-type 3′UTR in the target gene	–	–	–
